This is an account of results in patent US6566086B1, “Diagnostic kit for detecting creatine levels” (FAL Diagnostics, priority 2000, dated 2003).

Molecules are shown by their SMILES.

Test [1] in a line: 1H NMR detection of the interaction of substance 42 with creatine. The test is classed as binding. Conditions: CD3OD solution; creatine added to the test solution. The protocol: The ability of substance 42 to detect creatine was evaluated by ^1H NMR spectroscopy. […] (Bell, T. W. et al. 36th National Organic Symposium, U. of Wisconsin, Madison, Wis., Jun. 13, 1999-Jun. 17, 1999). [drawing 32] [drawing 33]

The subject of test [2] is animal models of Huntington's disease. The note with it: oral supplementation; cited from earlier work.

Turning to `O=C(O)c1ccc2c(n1)-c1nc3nc4c(cc3cc1CC2)CCc1ccc(C(=O)O)nc1-4` [Substance 42], in test [1], the “ability to detect creatine (interaction with creatine by 1H NMR)” value is “interaction of creatine with substance 42 was detected”.

Regarding `N=C1NCCN1CC(=O)O` [cyclocreatine, 1-carboxymethyl-2-iminoimidazolidine], the “protection from malonate lesions” value in test [2] is “protect the animals from malonate lesions”.
